Experimental data reported in publication PMC9636582 (The Journal of Biological Chemistry, 2022).
“Also recorded” adds a separate entry of the source.

How the values were obtained:
[1] = system: human intestinal organoids; assay: intracellular triglyceride in human intestinal organoids; type: cell-based; settings: organoids pretreated with 500 μM oleic acid 48 h, then 1 μM GW1516 or 30 μM fatty acids 24 h
[2] = target: T1, recombinant human PPARδ LBD protein (Homo sapiens, UniProt Q03181); assay: [14C] DHA competitive ligand-binding assay; settings: 100 nM [14C] DHA, 1 μM nonlabeled fatty acids, overnight at 4 °C
T1 construct: Human PPARδ LBD (140–442) construct was cloned into a pGEX-4T1 vector; GST (N, cleaved yes); made in house; host or cells: Escherichia coli BL21 (DE3) pLys
T1 sequence (Q03181 140-441 limits assumed): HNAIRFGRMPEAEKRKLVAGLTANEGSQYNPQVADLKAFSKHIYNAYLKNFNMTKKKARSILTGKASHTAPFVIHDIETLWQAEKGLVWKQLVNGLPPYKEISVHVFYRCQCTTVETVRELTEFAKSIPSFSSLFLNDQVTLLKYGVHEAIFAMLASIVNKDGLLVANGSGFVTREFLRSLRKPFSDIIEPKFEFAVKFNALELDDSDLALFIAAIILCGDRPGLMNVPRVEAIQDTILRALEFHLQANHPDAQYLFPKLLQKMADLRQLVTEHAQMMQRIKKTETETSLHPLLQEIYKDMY
Description: To identify the mechanism underlying the activation of PPARδ by GLA-derived fatty acids, we performed a [^14C] DHA competitive ligand-binding assay describing the displacement of ligands from receptors with recombinant human PPARδ LBD protein produced by a bacterial expression system (Figs. 4, A and B and S2). PPARδ LBD or glutathione-S-transferase (GST) recombinant protein was incubated with both [^14C] […] A competitive inhibition of [^14C] DHA binding was analyzed as a direct binding to PPARδ LBD (see Experimental procedures). […] DHA binding to PPARδ LBD competitively (Fig. 4C).
Human PPARδ LBD (140–442) construct was cloned into a pGEX-4T1 vector (GE Healthcare Life Sciences) at the restriction enzyme site of SmaI and XhoI. The protein was expressed in Eschericia coli BL21 (DE3) pLys cells (Novagen) as a C-terminal fusion to a GST tag with a thrombin cleavage site. A single colony was cultured in 2 ml of LB media supplemented with 20 μg/ml of ampicillin and 30 μg/ml of chloramphenicol at 37 °C and 200 rpm for 18 h. The preculture was then transferred to 1 l of LB media until the A600 reached 0.6 to 0.8. IPTG was added to produce a final concentration of 0.4 mM, and expression was continued at 24 °C and 150 rpm for 18 h. Cells were collected using centrifugation, and pellets were resuspended in lysis buffer comprising 50 mM Tris–HCl (pH 7.5), 150 mM NaCl, 5 mM DTT, 1 mM EDTA, and 10% glycerol before sonication was performed. The supernatant was then collected using centrifugation at 100,000g and 4 °C for 70 min, after which it was loaded onto GST Accept (nacalai tesque) and equilibrated using the lysis buffer. Subsequently, the column was washed using five column volumes of the lysis buffer and thrombin cleavage buffer comprising 20 mM Tri–HCl (pH 8.4), 150 mM NaCl, 2.5 mM CaCl2, and 1 mM DTT, respectively. The GST tag was removed via digestion using biotinylated thrombin (Merck) for 18 h at 4 °C. The biotinylated thrombin was removed using Dynabeads M-280 streptavidin (Veritas). The purity of the target proteins was verified using SDS-PAGE.
A ligand-binding assay was performed as described previously with minor modifications ([72]). Briefly, purified recombinant human PPARδ LBD protein was incubated with 100 nM ([…]) [^14C] DHA in GP buffer (137 mM NaCl, 8.1 mM Na2HPO4, 2.68 mM KCl, 1.47 mM KH2PO4, 1% sodium azide, and 0.1% gelatin) overnight at 4 °C with or without various competitors (1 μM), including DHA and GLA-derived fatty acids. Unbound ligands were removed by adsorption to 3% dextran-coated charcoal, and the supernatant was collected. The PPARδ-bound [^14C] DHA was measured using a scintillation counter (PerkinElmer).

[3] = target: T2, GAL4-PPARδ LBD (Homo sapiens, UniProt Q03181); assay: GAL4-PPARδ LBD luciferase reporter assay in HEK293 cells; type: cell-based; settings: for EC50: GAL4-PPARδ LBD, calculated from luciferase activity with Quest Graph EC50 Calculator; for PPARδ activation compared with dietary PUFAs (in words): 30 μM fatty acids, Fig. 2A; for PPARδ activation (in words): 100 μM fatty acids, Fig. 1B
T2 construct: chimeric receptors containing the LBD of various NRs; expressed in transfected cells; host or cells: HEK293
T2 sequence (Q03181 211-439 limits assumed): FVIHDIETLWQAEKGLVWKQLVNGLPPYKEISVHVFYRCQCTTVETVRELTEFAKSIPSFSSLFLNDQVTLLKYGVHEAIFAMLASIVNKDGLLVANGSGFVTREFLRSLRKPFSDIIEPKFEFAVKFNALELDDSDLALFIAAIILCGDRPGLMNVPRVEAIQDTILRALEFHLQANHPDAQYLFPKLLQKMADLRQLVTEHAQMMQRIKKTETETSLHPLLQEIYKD

[4] = target: T3, GAL4-PPARα LBD (Homo sapiens, UniProt Q07869); assay: GAL4-PPARα LBD luciferase reporter assay in HEK293 cells; type: cell-based; settings: GAL4-PPARα LBD, calculated from luciferase activity with Quest Graph EC50 Calculator
T3 construct: chimeric receptors containing the LBD of various NRs; expressed in transfected cells; host or cells: HEK293
T3 sequence (Q07869 239-466 limits assumed): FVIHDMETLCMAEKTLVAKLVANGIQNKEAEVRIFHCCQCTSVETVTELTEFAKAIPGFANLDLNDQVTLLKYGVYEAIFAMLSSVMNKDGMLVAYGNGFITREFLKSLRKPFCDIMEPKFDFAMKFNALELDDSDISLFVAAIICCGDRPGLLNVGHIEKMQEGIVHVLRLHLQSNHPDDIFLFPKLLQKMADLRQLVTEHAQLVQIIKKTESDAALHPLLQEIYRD

Compound | intracellular triglyceride levels [1] | competitive displacement of [14C] DHA binding to PPARδ LBD [2] | EC50 [3] [µM] | EC50 [4] [µM] | PPARδ activation compared with dietary PUFAs (in words) [3] | PPARδ activation (in words) [3]
CCCCC/C=C\C/C=C\C/C=C\CCCCC(=O)O [GLA, γ-linolenic acid, reference compound] | not | only weak competition | 509 | 11 | – | –
CCCCCC(O)CCC=CCC=CCCCCC(=O)O (stereo not drawn) [γHYD, 13-hydroxy-cis-6,cis-9-octadecadienoic acid] | reduced intracellular triglyceride accumulation | displaced [^14C] DHA binding to PPARδ LBD competitively; also recorded: comparable ligand-binding abilities to that of the C22 fatty acid DHA | 10.6 | 2.84 | activated PPARδ more robustly than DHA and eicosapentaenoic acid as well as GLA | more robust PPARδ activation than their original compound, GLA
CCCCCC(=O)CCC=CCC=CCCCCC(=O)O [γKetoD, 13-oxo-cis-6,cis-9-octadecadienoic acid] | reduced intracellular triglyceride accumulation | displaced [^14C] DHA binding to PPARδ LBD competitively; also recorded: comparable ligand-binding abilities to that of the C22 fatty acid DHA | 20.3 | 4.14 | activated PPARδ more robustly than DHA and eicosapentaenoic acid as well as GLA | more robust PPARδ activation than their original compound, GLA
